Data taken from the kinase profiling compilation of Christmann-Franck et al. (2016).
Each block holds one molecule with its values, some of them ahead of it.

Columns and labels:
Test in all cases: radiometric filter-binding kinase assay
SRPK1 (human) = SRPK1 (human) (UniProt Q96SB4)
PRKCA (human) = PRKCA (human) (UniProt P17252)
MAPK15 (human) = MAPK15 (human) (UniProt Q8TD08)
BTK (human) = BTK (human) (UniProt Q06187)
MKNK2 (human) = MKNK2 (human) (UniProt Q9HBH9)
FLT1 (human) = FLT1 (human) (UniProt P17948)
NEK6 (human) = NEK6 (human) (UniProt Q9HC98)
MAPK11 (human) = MAPK11 (human) (UniProt Q15759)
YES1 (human) = YES1 (human) (UniProt P07947)
MAPK14 (human) = MAPK14 (human) (UniProt Q16539)
DYRK2 (human) = DYRK2 (human) (UniProt Q92630)
MAPK1 (human) = MAPK1 (human) (UniProt P28482)
NEK2 (human) = NEK2 (human) (UniProt P51955)
CSNK2A1 (human) = CSNK2A1 (human) (UniProt P68400)
CSNK1D (human) = CSNK1D (human) (UniProt P48730)
[1] = tested on: AKT2 (human), P31751 [S474D]
RPS6KA5 KD1 KD2 (human) = RPS6KA5 KD1 KD2 (human) (UniProt O75582)
INSRR (human) = INSRR (human) (UniProt P14616)
RPS6KA1 KD1 KD2 (human) = RPS6KA1 KD1 KD2 (human) (UniProt Q15418)
INSR (human) = INSR (human) (UniProt P06213)
HIPK2 (human) = HIPK2 (human) (UniProt Q9H2X6)
[2] = tested on: RPS6KB1 (human), P23443 [T412E]
MARK3 (human) = MARK3 (human) (UniProt P27448)

Sequence of DYRK2 (human) (Q92630 whole entry, looked up): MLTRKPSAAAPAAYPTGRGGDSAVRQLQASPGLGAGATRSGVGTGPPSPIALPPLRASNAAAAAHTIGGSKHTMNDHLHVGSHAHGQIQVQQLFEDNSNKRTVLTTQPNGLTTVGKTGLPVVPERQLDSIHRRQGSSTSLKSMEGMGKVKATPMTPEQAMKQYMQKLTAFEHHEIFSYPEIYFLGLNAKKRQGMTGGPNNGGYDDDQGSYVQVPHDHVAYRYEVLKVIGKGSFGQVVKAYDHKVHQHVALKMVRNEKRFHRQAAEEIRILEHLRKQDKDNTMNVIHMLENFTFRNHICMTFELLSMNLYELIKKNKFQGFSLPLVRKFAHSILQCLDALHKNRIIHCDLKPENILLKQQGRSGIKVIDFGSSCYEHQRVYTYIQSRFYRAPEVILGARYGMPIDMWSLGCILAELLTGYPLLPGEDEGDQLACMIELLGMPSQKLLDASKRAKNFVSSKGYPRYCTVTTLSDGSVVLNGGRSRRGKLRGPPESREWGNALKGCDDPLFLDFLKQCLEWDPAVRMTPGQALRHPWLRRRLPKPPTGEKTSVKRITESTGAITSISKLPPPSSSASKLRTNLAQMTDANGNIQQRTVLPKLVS
Sequence of NEK2 (human) (P51955 whole entry, looked up): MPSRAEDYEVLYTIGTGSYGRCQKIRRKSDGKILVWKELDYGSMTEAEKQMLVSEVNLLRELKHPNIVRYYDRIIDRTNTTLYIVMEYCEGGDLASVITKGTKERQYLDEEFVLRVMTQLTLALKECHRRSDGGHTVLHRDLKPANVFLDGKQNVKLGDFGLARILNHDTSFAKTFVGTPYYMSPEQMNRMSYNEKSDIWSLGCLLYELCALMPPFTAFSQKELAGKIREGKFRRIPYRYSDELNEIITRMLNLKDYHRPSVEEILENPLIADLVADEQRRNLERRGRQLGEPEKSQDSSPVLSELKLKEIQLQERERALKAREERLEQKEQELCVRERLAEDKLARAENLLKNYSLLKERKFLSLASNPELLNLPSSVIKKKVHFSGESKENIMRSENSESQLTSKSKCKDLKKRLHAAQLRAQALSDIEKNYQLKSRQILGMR
Sequence of FLT1 (human) (P17948 whole entry, looked up): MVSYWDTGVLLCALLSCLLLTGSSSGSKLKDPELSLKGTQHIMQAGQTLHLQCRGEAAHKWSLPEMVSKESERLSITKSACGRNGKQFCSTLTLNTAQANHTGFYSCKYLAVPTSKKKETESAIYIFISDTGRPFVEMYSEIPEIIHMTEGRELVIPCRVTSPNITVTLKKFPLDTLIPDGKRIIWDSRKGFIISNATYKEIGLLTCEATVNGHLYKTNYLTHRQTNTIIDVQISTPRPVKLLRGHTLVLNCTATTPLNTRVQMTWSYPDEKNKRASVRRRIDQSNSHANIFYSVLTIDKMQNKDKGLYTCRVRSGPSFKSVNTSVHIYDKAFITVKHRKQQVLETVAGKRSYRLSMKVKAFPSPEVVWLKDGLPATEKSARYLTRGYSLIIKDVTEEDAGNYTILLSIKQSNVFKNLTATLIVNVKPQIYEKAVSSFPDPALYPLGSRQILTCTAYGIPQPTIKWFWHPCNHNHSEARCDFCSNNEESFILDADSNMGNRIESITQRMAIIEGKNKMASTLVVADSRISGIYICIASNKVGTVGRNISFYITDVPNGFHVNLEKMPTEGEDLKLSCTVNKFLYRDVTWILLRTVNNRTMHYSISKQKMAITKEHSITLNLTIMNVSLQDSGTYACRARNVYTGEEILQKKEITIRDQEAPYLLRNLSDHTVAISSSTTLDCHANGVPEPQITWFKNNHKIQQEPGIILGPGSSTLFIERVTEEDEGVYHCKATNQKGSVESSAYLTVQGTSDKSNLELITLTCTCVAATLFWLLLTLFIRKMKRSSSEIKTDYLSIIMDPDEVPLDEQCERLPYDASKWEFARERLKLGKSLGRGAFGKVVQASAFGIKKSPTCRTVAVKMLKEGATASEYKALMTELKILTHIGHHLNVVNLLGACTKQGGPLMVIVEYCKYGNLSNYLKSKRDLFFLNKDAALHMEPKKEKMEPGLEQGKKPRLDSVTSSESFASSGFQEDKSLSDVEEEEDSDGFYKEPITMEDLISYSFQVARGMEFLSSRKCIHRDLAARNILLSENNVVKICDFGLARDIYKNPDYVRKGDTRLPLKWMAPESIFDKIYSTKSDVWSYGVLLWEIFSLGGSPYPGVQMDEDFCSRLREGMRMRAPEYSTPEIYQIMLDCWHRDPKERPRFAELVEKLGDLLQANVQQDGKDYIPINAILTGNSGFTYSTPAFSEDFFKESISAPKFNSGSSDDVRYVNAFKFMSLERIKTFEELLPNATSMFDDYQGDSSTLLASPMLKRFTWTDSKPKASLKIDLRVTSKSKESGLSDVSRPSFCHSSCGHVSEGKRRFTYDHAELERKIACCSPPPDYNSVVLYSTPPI
Sequence of MAPK11 (human) (Q15759 whole entry, looked up): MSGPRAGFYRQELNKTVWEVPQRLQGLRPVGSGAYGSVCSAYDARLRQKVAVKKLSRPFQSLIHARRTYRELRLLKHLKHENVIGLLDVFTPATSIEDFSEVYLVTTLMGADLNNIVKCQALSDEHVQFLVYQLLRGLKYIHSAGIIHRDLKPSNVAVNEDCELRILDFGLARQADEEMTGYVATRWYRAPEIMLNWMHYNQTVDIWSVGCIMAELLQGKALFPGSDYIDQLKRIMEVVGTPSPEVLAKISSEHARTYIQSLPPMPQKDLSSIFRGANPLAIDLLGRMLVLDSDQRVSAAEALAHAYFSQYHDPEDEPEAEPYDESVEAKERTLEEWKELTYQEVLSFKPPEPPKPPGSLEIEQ
Sequence of NEK6 (human) (Q9HC98 whole entry, looked up): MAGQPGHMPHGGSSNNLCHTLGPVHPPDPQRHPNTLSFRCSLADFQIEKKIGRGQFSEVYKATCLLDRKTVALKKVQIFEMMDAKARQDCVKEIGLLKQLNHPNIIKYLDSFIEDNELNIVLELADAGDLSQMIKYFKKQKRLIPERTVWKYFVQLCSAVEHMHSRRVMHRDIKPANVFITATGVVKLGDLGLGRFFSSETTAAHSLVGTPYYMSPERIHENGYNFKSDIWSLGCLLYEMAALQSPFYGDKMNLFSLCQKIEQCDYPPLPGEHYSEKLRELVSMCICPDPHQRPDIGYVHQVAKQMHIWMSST
Sequence of RPS6KB1 (human), P23443 [T412E] (P23443 whole entry T412E, looked up): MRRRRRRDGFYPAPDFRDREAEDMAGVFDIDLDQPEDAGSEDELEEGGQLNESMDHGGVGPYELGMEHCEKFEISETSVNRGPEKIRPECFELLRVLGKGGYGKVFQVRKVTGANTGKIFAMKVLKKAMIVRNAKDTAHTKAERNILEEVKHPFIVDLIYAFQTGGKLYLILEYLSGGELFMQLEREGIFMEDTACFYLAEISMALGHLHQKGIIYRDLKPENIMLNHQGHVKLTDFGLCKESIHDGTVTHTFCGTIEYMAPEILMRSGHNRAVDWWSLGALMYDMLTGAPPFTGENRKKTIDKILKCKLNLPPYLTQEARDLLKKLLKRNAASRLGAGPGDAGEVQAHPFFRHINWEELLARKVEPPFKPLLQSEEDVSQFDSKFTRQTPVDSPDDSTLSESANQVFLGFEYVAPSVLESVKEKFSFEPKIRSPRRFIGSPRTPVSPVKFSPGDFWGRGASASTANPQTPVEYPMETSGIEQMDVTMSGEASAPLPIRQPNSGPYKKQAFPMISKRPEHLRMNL
Sequence of SRPK1 (human) (Q96SB4 whole entry, looked up): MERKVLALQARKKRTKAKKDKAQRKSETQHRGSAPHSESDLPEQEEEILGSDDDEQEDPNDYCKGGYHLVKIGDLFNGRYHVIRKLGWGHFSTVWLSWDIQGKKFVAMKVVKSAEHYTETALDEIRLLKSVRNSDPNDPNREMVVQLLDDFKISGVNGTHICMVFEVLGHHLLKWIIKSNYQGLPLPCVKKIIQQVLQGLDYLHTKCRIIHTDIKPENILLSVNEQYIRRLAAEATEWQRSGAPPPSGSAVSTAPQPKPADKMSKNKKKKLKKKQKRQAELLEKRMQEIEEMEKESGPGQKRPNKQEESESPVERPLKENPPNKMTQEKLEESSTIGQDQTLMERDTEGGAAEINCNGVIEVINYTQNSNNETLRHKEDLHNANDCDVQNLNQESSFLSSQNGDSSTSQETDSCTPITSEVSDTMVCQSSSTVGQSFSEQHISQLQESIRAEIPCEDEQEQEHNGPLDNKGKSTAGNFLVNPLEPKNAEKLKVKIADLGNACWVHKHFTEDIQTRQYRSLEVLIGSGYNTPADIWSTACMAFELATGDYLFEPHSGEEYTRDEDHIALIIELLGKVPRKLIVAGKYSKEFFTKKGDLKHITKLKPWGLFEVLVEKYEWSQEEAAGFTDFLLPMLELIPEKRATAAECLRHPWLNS
Sequence of MAPK14 (human) (Q16539 whole entry, looked up): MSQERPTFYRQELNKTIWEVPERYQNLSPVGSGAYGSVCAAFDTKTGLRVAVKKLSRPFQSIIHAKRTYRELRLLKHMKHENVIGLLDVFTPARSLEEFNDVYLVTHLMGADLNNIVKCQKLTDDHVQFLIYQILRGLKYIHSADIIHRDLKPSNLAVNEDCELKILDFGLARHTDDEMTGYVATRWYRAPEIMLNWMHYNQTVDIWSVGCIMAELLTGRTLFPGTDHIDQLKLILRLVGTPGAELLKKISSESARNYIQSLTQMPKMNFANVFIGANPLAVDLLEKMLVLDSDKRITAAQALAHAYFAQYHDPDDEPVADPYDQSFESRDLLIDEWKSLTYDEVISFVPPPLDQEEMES
Sequence of MAPK1 (human) (P28482 whole entry, looked up): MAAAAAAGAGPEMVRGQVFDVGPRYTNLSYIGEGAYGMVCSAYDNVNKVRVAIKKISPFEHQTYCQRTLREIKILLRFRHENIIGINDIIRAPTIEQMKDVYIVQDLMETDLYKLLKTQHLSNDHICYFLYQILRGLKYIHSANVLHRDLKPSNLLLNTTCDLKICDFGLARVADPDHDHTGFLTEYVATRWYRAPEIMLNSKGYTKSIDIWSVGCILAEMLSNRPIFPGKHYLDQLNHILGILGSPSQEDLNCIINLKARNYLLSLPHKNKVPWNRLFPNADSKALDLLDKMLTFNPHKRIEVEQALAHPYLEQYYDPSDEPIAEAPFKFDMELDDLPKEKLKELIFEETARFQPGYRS

residual activity (SRPK1 (human); compound 1.0 µM): 100% | residual activity (SRPK1 (human); compound 10.0 µM): 98% | residual activity (PRKCA (human); compound 1.0 µM): 97% | residual activity (PRKCA (human); compound 10.0 µM): 104% | residual activity (BTK (human); compound 1.0 µM): 84% | residual activity (BTK (human); compound 10.0 µM): 99% | residual activity (MKNK2 (human); compound 1.0 µM): 92% | residual activity (MKNK2 (human); compound 10.0 µM): 97% | residual activity (FLT1 (human); compound 1.0 µM): 89% | residual activity (NEK6 (human); compound 1.0 µM): 83% | residual activity (NEK6 (human); compound 10.0 µM): 87% | residual activity (MAPK11 (human); compound 1.0 µM): 94% | residual activity (MAPK11 (human); compound 10.0 µM): 95% | residual activity (YES1 (human); compound 1.0 µM): 85% | residual activity (YES1 (human); compound 10.0 µM): 96% | residual activity (MAPK14 (human); compound 1.0 µM): 76% | residual activity (MAPK14 (human); compound 10.0 µM): 82% | residual activity (DYRK2 (human); compound 1.0 µM): 82% | residual activity (DYRK2 (human); compound 10.0 µM): 98% | residual activity (MAPK1 (human); compound 1.0 µM): 80% | residual activity (MAPK1 (human); compound 10.0 µM): 88% | residual activity (NEK2 (human); compound 1.0 µM): 87% | residual activity (NEK2 (human); compound 10.0 µM): 92% | residual activity (CSNK2A1 (human); compound 1.0 µM): 83% | residual activity (CSNK2A1 (human); compound 10.0 µM): 93% | residual activity (CSNK1D (human); compound 1.0 µM): 105% | residual activity (CSNK1D (human); compound 10.0 µM): 115% | residual activity ([1]; compound 1.0 µM): 83% | residual activity ([1]; compound 10.0 µM): 97% | residual activity (RPS6KA5 KD1 KD2 (human); compound 1.0 µM): 80% | residual activity (RPS6KA5 KD1 KD2 (human); compound 10.0 µM): 87% | residual activity (INSRR (human); compound 1.0 µM): 83% | residual activity (INSRR (human); compound 10.0 µM): 90% | residual activity (RPS6KA1 KD1 KD2 (human); compound 1.0 µM): 80% | residual activity (RPS6KA1 KD1 KD2 (human); compound 10.0 µM): 91% | residual activity (INSR (human); compound 1.0 µM): 96% | residual activity (INSR (human); compound 10.0 µM): 103% | residual activity (HIPK2 (human); compound 10.0 µM): 92% | residual activity ([2]; compound 1.0 µM): 88% | residual activity ([2]; compound 10.0 µM): 100% | residual activity (MARK3 (human); compound 1.0 µM): 92% | residual activity (MARK3 (human); compound 10.0 µM): 85%
Structure (SMILES): O=C1NC(=S)N[C@@H]1Cc1c[nH]c2ccccc12
residual activity (MAPK15 (human); compound 1.0 µM): 104% | residual activity (MAPK15 (human); compound 10.0 µM): 94%

residual activity (SRPK1 (human); compound 0.001 µM): 98% | residual activity (SRPK1 (human); compound 0.01 µM): 96% | residual activity (SRPK1 (human); compound 0.1 µM): 93% | residual activity (PRKCA (human); compound 0.001 µM): 102% | residual activity (PRKCA (human); compound 0.01 µM): 113% | residual activity (PRKCA (human); compound 0.1 µM): 107% | residual activity (BTK (human); compound 0.001 µM): 95% | residual activity (BTK (human); compound 0.01 µM): 85% | residual activity (BTK (human); compound 0.1 µM): 93% | residual activity (MKNK2 (human); compound 0.001 µM): 93% | residual activity (MKNK2 (human); compound 0.01 µM): 86% | residual activity (MKNK2 (human); compound 0.1 µM): 78% | residual activity (FLT1 (human); compound 0.001 µM): 95% | residual activity (FLT1 (human); compound 0.01 µM): 50% | residual activity (FLT1 (human); compound 0.1 µM): 13% | residual activity (NEK6 (human); compound 0.001 µM): 86% | residual activity (NEK6 (human); compound 0.01 µM): 84% | residual activity (NEK6 (human); compound 0.1 µM): 82% | residual activity (MAPK11 (human); compound 0.001 µM): 104% | residual activity (MAPK11 (human); compound 0.01 µM): 100% | residual activity (MAPK11 (human); compound 0.1 µM): 105% | residual activity (YES1 (human); compound 0.001 µM): 77% | residual activity (YES1 (human); compound 0.01 µM): 60% | residual activity (YES1 (human); compound 0.1 µM): 42% | residual activity (MAPK14 (human); compound 0.001 µM): 87% | residual activity (MAPK14 (human); compound 0.01 µM): 86% | residual activity (MAPK14 (human); compound 0.1 µM): 84% | residual activity (DYRK2 (human); compound 0.001 µM): 88% | residual activity (DYRK2 (human); compound 0.01 µM): 59% | residual activity (DYRK2 (human); compound 0.1 µM): 18% | residual activity (MAPK1 (human); compound 0.001 µM): 108% | residual activity (MAPK1 (human); compound 0.01 µM): 95% | residual activity (MAPK1 (human); compound 0.1 µM): 79% | residual activity (NEK2 (human); compound 0.001 µM): 92% | residual activity (NEK2 (human); compound 0.01 µM): 92% | residual activity (NEK2 (human); compound 0.1 µM): 86% | residual activity (CSNK2A1 (human); compound 0.001 µM): 92% | residual activity (CSNK2A1 (human); compound 0.01 µM): 91% | residual activity (CSNK2A1 (human); compound 0.1 µM): 86% | residual activity (CSNK1D (human); compound 0.001 µM): 94% | residual activity (CSNK1D (human); compound 0.01 µM): 94% | residual activity (CSNK1D (human); compound 0.1 µM): 89% | residual activity ([1]; compound 0.001 µM): 79% | residual activity ([1]; compound 0.01 µM): 82% | residual activity (RPS6KA5 KD1 KD2 (human); compound 0.001 µM): 83% | residual activity (RPS6KA5 KD1 KD2 (human); compound 0.01 µM): 87% | residual activity (RPS6KA5 KD1 KD2 (human); compound 0.1 µM): 80% | residual activity (INSRR (human); compound 0.001 µM): 91% | residual activity (INSRR (human); compound 0.01 µM): 75% | residual activity (INSRR (human); compound 0.1 µM): 47% | residual activity (RPS6KA1 KD1 KD2 (human); compound 0.001 µM): 89% | residual activity (RPS6KA1 KD1 KD2 (human); compound 0.01 µM): 75% | residual activity (RPS6KA1 KD1 KD2 (human); compound 0.1 µM): 24% | residual activity (INSR (human); compound 0.01 µM): 102% | residual activity (INSR (human); compound 0.1 µM): 110% | residual activity (HIPK2 (human); compound 0.001 µM): 89% | residual activity (HIPK2 (human); compound 0.01 µM): 82% | residual activity (HIPK2 (human); compound 0.1 µM): 51% | residual activity ([2]; compound 0.001 µM): 95% | residual activity ([2]; compound 0.01 µM): 91% | residual activity ([2]; compound 0.1 µM): 83% | residual activity (MARK3 (human); compound 0.001 µM): 93% | residual activity (MARK3 (human); compound 0.01 µM): 61% | residual activity (MARK3 (human); compound 0.1 µM): 14%
Structure (SMILES): C/C(=C1/C(=O)Nc2ccc(NC(N)=O)cc21)c1ccc[nH]1
residual activity (MAPK15 (human); compound 0.001 µM): 85% | residual activity (MAPK15 (human); compound 0.01 µM): 49% | residual activity (MAPK15 (human); compound 0.1 µM): 7%
